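Test compounds were applied to cells in 96-well plates for 48 hours at 5 doses. Abbreviation: GI50, concentration required for 50% inhibition of growth.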 Active and inactive are the calls of the source. Cut-off read from the data, not from the text of the source: active = GI50 up to about 1.1 µM and inactive = higher.
Experiments:
Assay in all cases: DTP human tumour cell line panel, 48 h
HCT-15 = system: HCT-15
SF-539 = system: SF-539
T47D = system: T47D
NCI-H226 = system: NCI-H226
Hs-578T = system: Hs-578T
CCRF-CEM = system: CCRF-CEM
SK-MEL-2 = system: SK-MEL-2
SF-268 = system: SF-268
SK-OV-3 = system: SK-OV-3
RPMI-8226 = system: RPMI-8226
HOP-62 = system: HOP-62
UO-31 = system: UO-31
SNB-19 = system: SNB-19
K562 = system: K562
OVCAR-3 = system: OVCAR-3
HCT-116 = system: HCT-116
NCI/ADR-RES = system: NCI/ADR-RES
SK-MEL-28 = system: SK-MEL-28
OVCAR-5 = system: OVCAR-5
A549 = system: A549
TK-10 = system: TK-10
EKVX = system: EKVX
COLO 205 = system: COLO 205
BT-549 = system: BT-549
MDA-N = system: MDA-N
NCI-H460 = system: NCI-H460
OVCAR-8 = system: OVCAR-8
U-251 = system: U-251
UACC-62 = system: UACC-62
OVCAR-4 = system: OVCAR-4
MCF7 = system: MCF7
ACHN = system: ACHN
RXF 393 = system: RXF 393
HOP-92 = system: HOP-92
IGROV-1 = system: IGROV-1
PC-3 = system: PC-3
CAKI-1 = system: CAKI-1
SR = system: SR
HL-60 = system: HL-60
DU-145 = system: DU-145
SK-MEL-5 = system: SK-MEL-5
MOLT-4 = system: MOLT-4
MDA-MB-231 = system: MDA-MB-231
HCC 2998 = system: HCC 2998
KM12 = system: KM12
786-0 = system: 786-0
SN12C = system: SN12C
SNB-75 = system: SNB-75
SF-295 = system: SF-295
NCI-H522 = system: NCI-H522
M14 = system: M14
Malme-3M = system: Malme-3M
MDA-MB-435 = system: MDA-MB-435
HT-29 = system: HT-29
SW-620 = system: SW-620
UACC-257 = system: UACC-257
A498 = system: A498
LOX IMVI = system: LOX IMVI
NCI-H23 = system: NCI-H23

Q: Which results are given for `N=C(N)c1ccc(/N=N\c2c(O)ccc3cc4c(/N=N\c5ccc(C(=N)N)cc5)c(O)ccc4cc23)cc1`?
A: GI50 (HCT-15): 56 µM; GI50 (SF-539): 94.8 µM (inactive); GI50 (T47D): 96.8 µM (inactive); GI50 (NCI-H226): > 100 µM (inactive); GI50 (Hs-578T): > 100 µM (inactive); GI50 (CCRF-CEM): 37.2 µM (inactive); GI50 (SK-MEL-2): > 100 µM (inactive); GI50 (SF-268): 95.3 µM (inactive); GI50 (SK-OV-3): > 100 µM (inactive); GI50 (RPMI-8226): 28 µM (inactive); GI50 (HOP-62): 45.4 µM (inactive); GI50 (UO-31): 53.1 µM (inactive); GI50 (SNB-19): > 100 µM (inactive); GI50 (K562): 31.2 µM (inactive); GI50 (OVCAR-3): > 100 µM (inactive); GI50 (HCT-116): 50 µM (inactive); GI50 (NCI/ADR-RES): > 100 µM (inactive); GI50 (SK-MEL-28): > 100 µM (inactive); GI50 (OVCAR-5): > 100 µM (inactive); GI50 (A549): > 100 µM (inactive); GI50 (TK-10): > 100 µM (inactive); GI50 (EKVX): > 100 µM (inactive); GI50 (COLO 205): > 100 µM (inactive); GI50 (BT-549): > 100 µM (inactive); GI50 (MDA-N): > 100 µM (inactive); GI50 (NCI-H460): 40.7 µM (inactive); GI50 (OVCAR-8): 80.4 µM (inactive); GI50 (U-251): 51.1 µM (inactive); GI50 (UACC-62): > 100 µM (inactive); GI50 (OVCAR-4): > 100 µM (inactive); GI50 (MCF7): 87.9 µM (inactive); GI50 (ACHN): > 100 µM (inactive); GI50 (RXF 393): > 100 µM (inactive); GI50 (HOP-92): > 100 µM (inactive); GI50 (IGROV-1): 51.5 µM (inactive); GI50 (PC-3): > 100 µM (inactive); GI50 (CAKI-1): > 100 µM (inactive); GI50 (SR): 26.6 µM (inactive); GI50 (HL-60): 25.2 µM (inactive); GI50 (DU-145): > 100 µM (inactive); GI50 (SK-MEL-5): 51.6 µM (inactive); GI50 (MOLT-4): 37.8 µM (inactive); GI50 (MDA-MB-231): 29 µM (inactive); GI50 (HCC 2998): > 100 µM (inactive); GI50 (KM12): > 100 µM (inactive); GI50 (786-0): 49 µM (inactive); GI50 (SN12C): > 100 µM (inactive); GI50 (SNB-75): > 100 µM (inactive); GI50 (SF-295): 50.8 µM (inactive); GI50 (NCI-H522): > 100 µM (inactive); GI50 (M14): > 100 µM (inactive); GI50 (Malme-3M): > 100 µM (inactive); GI50 (MDA-MB-435): > 100 µM (inactive); GI50 (HT-29): 75.9 µM (inactive); GI50 (SW-620): 87.1 µM (inactive); GI50 (UACC-257): > 100 µM (inactive)

Q: Which results are given for `CCn1c(SCC(=O)NNC(=S)Nc2ccc(F)cc2)nc2ccccc2c1=O`?
A: GI50 (HCT-15): 74.6 µM; GI50 (SF-539): > 100 µM (inactive); GI50 (T47D): 57.7 µM (inactive); GI50 (NCI-H226): > 100 µM (inactive); GI50 (Hs-578T): > 100 µM (inactive); GI50 (CCRF-CEM): > 100 µM (inactive); GI50 (SK-MEL-2): > 100 µM (inactive); GI50 (SF-268): 79.8 µM (inactive); GI50 (SK-OV-3): > 100 µM (inactive); GI50 (RPMI-8226): 63.5 µM (inactive); GI50 (HOP-62): > 100 µM (inactive); GI50 (UO-31): 17.9 µM (inactive); GI50 (SNB-19): > 100 µM (inactive); GI50 (K562): 74.5 µM (inactive); GI50 (OVCAR-3): > 100 µM (inactive); GI50 (HCT-116): > 100 µM (inactive); GI50 (NCI/ADR-RES): > 100 µM (inactive); GI50 (SK-MEL-28): > 100 µM (inactive); GI50 (A498): > 100 µM (inactive); GI50 (OVCAR-5): > 100 µM (inactive); GI50 (A549): > 100 µM (inactive); GI50 (TK-10): > 100 µM (inactive); GI50 (EKVX): > 100 µM (inactive); GI50 (COLO 205): > 100 µM (inactive); GI50 (BT-549): > 100 µM (inactive); GI50 (MDA-N): > 100 µM (inactive); GI50 (NCI-H460): 0.472 µM (active); GI50 (OVCAR-8): > 100 µM (inactive); GI50 (U-251): > 100 µM (inactive); GI50 (UACC-62): 58.7 µM (inactive); GI50 (OVCAR-4): 63 µM (inactive); GI50 (MCF7): > 100 µM (inactive); GI50 (ACHN): > 100 µM (inactive); GI50 (RXF 393): > 100 µM (inactive); GI50 (IGROV-1): > 100 µM (inactive); GI50 (PC-3): 66.1 µM (inactive); GI50 (SR): 49.4 µM (inactive); GI50 (HL-60): > 100 µM (inactive); GI50 (DU-145): > 100 µM (inactive); GI50 (LOX IMVI): > 100 µM (inactive); GI50 (SK-MEL-5): > 100 µM (inactive); GI50 (MOLT-4): 44.4 µM (inactive); GI50 (MDA-MB-231): > 100 µM (inactive); GI50 (HCC 2998): > 100 µM (inactive); GI50 (KM12): > 100 µM (inactive); GI50 (786-0): > 100 µM (inactive); GI50 (SN12C): > 100 µM (inactive); GI50 (SNB-75): > 100 µM (inactive); GI50 (SF-295): > 100 µM (inactive); GI50 (NCI-H522): 48 µM (inactive); GI50 (M14): > 100 µM (inactive); GI50 (Malme-3M): > 100 µM (inactive); GI50 (MDA-MB-435): > 100 µM (inactive); GI50 (HT-29): > 100 µM (inactive); GI50 (SW-620): > 100 µM (inactive); GI50 (NCI-H23): > 100 µM (inactive); GI50 (UACC-257): > 100 µM (inactive)
